From PubChem BioAssay (NCI)
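How tested: cells in 96-well plates exposed to compound for 48 hours at five concentrations. At the GI50, growth is halved. TGI: concentration producing complete growth inhibition.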

Columns and labels:
Test in all cases: NCI anticancer screen, dose series, 48 h
[1] = system: NCI/ADR-RES ovarian
[2] = system: T-47D breast
[3] = system: PC-3 prostate
[4] = system: DU-145 prostate
[5] = system: HS 578T breast
[6] = system: XF 498 CNS
[7] = system: DLD-1 colon
[8] = system: DMS 273 small cell lung
[9] = system: LXFL 529 NSCLC

Row | SMILES | GI50 [1] [µM] | TGI [1] [µM] | GI50 [2] [µM] | TGI [2] [µM] | GI50 [3] [µM] | TGI [3] [µM] | GI50 [4] [µM] | TGI [4] [µM] | GI50 [5] [µM] | TGI [5] [µM] | TGI [6] [µM] | TGI [7] [µM] | TGI [8] [µM] | TGI [9] [µM]
1 | Cc1cc(/C=C2\SC(=Nc3ccccc3)N(C3CCCC3)C2=O)c(C)n1-c1ccc(Cl)cc1 | > 100 | > 100 | > 100 | > 100 | 75.5 | > 100 | > 100 | > 100 | > 100 | > 100 | – | – | – | –
2 | COc1cc(OC2OC(C)C(O)C(O)C2O)cc2oc(-c3ccc(O)cc3)c(CC=C(C)C)c(=O)c12 (centres undefined) | 24.3 | 93.3 | 8.74 | 30.8 | 8.32 | 28.4 | 34.3 | > 100 | 24 | > 100 | – | – | – | –
3 | Cc1c(CCCl)c(=O)n2c([nH]c3ccccc32)c1C#N | – | 2.7 | – | 2.97 | – | 2.82 | – | 5.63 | – | 4.89 | – | – | – | –
4 | Oc1ccc(N=Nc2ccc(Cl)cc2)cc1 | – | 51.3 | – | 67.4 | – | 29.3 | – | 30.8 | – | 73.3 | – | – | – | –
5 | O=c1cc(-c2ccccc2)[nH]c2cccc(S)c12 | – | 0.236 | – | > 100 | – | > 100 | – | > 100 | – | > 100 | – | – | – | –
6 | COc1cc(/C=C/c2cc(C(F)(F)F)[nH]c(=O)n2)ccc1OCc1ccccc1F | 14.7 | > 100 | 9.98 | 63.1 | 9.06 | 29 | 9.8 | 23.3 | 32 | > 100 | – | – | – | –
7 | CCN(CC)CCNc1c(OC)cc(C)c2sc3ccccc3c(=O)c12 | – | 19.2 | – | 39.9 | – | 20.8 | – | 24.2 | – | 24.8 | – | – | – | –
8 | CN(C(=O)c1ccc(Cl)s1)C(=S)N(C)C(=O)c1ccc(Cl)s1 | – | > 10 | – | > 10 | – | > 10 | – | > 10 | – | > 10 | – | – | – | –
9 | COc1cc(OC)c(/C=C/c2ccc3ccccc3[n+]2C)c(OC)c1 | > 66.4 | > 100 | 0.294 | 2.83 | 1.82 | 17.3 | 0.944 | 15.3 | 0.638 | 19.3 | – | – | – | –
10 | O=[N+]([O-])c1ccc2[nH]cc(-c3c4ccsc4cc4[nH]c5ccc([N+](=O)[O-])cc5c34)c2c1 | 0.744 | 8.22 | 0.864 | 4.46 | 0.931 | 6.36 | 0.833 | 2.69 | 0.824 | 5.49 | – | – | – | –
11 | O=C(O)C1CCc2ccc3ccccc3c2C1c1cccc2ccccc12 (centres undefined) | – | 57.8 | – | > 100 | – | 41.2 | – | 68.8 | – | > 100 | – | – | – | –
12 | CCOC(=O)C(C)(C)Oc1ccc2c(=O)cc(-c3ccc(Cl)cc3)oc2c1 | – | – | – | – | – | – | – | – | – | – | > 100 | > 100 | > 100 | > 100
13 | O=C(Nc1ccccc1C(F)(F)F)c1cccc(NC2=C(Cl)C(=O)N(Cc3ccccc3)C2=O)c1 | 9.14 | 40.7 | 62.7 | > 100 | 8.78 | > 53 | 8.19 | 44 | 8.27 | 28.5 | – | – | – | –
